Test results taken from ChEMBL document CHEMBL4619803, “Stepwise Design of γ-Secretase Modulators with an Advanced Profile by Judicious Coordinated Structural Replacements and an Unconventional Phenyl Ring Bioisostere” (J Med Chem, 2020).
≈ marks a conversion by molar mass, not a printed value.

Assays:
[1] = Fraction unbound in human plasma; type: ADME, cell-free
[2] = Fraction unbound in mouse plasma; type: ADME, cell-free
[3] = target: Gamma-secretase (Homo sapiens) (UniProt Q96BI3+Q9NZ42+Q8WW43+P49768+Q92542+P49810); test: (§1) Modulation of gamma secretase in human H4 cells over expressing human APP695 harboring K595N/M596L Swedish double mutant assessed as reduction in Abeta42 production after 24 hrs by Alphalisa assay; type: cell-based
Gamma-secretase = test: as §1; type: cell-based
[4] = (§2) Modulation of mouse gamma secretase assessed as reduction in Abeta42 production
Mus musculus [5] = species: Mus musculus; test: as §2
[6] = Octanol/water distribution co-efficient, log D of the compound at pH 7.4; type: physicochemical
[7] = Solubility of compound by lyophilisation solubility assay; type: physicochemical
[8] = Clearance in human hepatocytes assessed per million cells; type: ADME, cell-based, Hepatocyte; details: read-out: CLH
[9] = Clearance in mouse hepatocytes assessed per million cells; type: ADME, cell-based, Hepatocyte; details: read-out: CLH
[10] = target: Voltage-gated inwardly rectifying potassium channel KCNH2 (Homo sapiens, UniProt Q12809); test: (§3) Inhibition of human ERG
hERG (KCNH2) = hERG (KCNH2) (Homo sapiens, UniProt Q12809); test: as §3; details: human
[11] = target: Phosphatidylinositol 4-kinase beta (Homo sapiens, UniProt Q9UBF8); test: Binding affinity to PIK4CB (unknown origin); type: ADME
[12] = Fraction unbound in rat plasma; type: ADME, cell-free
[13] = Clearance in rat hepatocytes assessed per million cell; type: ADME, cell-based, Hepatocyte; details: read-out: CLH
[14] = Dose normalized AUC (infinity) in rat at 2 mg/kg, po via gavage measured over 24 hrs; type: ADME, organism-based; details: in vivo
[15] = Clearance in rat at 1 mg/kg, iv bolus measured over 24 hrs; type: ADME, organism-based; details: in vivo
[16] = Terminal half life in rat at 1 mg/kg, iv bolus measured over 24 hrs; type: ADME, organism-based; details: in vivo, read-out: beta t1/2 (converted)
[17] = Volume of distribution at steady state in rat at 1 mg/kg, iv bolus measured over 24 hrs; type: ADME, organism-based; details: in vivo, read-out: Vdss
[18] = Oral bioavailability in rat at 2 mg/kg via gavage measured over 24 hrs; type: ADME, organism-based; details: in vivo
[19] = Dose normalized AUC (infinity) in minipig at 3 mg/kg, po via gavage measured over 240 hrs; type: ADME, organism-based, Sus scrofa domesticus; details: pig, in vivo
[20] = Clearance in minipig at 1 mg/kg, iv bolus measured over 240 hrs; type: ADME, organism-based, Sus scrofa domesticus; details: pig, in vivo
[21] = Terminal half life in minipig at 1 mg/kg, iv bolus measured over 240 hrs; type: ADME, organism-based, Sus scrofa domesticus; details: pig, in vivo, read-out: beta t1/2 (converted)
[22] = Volume of distribution at steady state in minipig at 1 mg/kg, iv bolus measured over 240 hrs; type: ADME, organism-based, Sus scrofa domesticus; details: pig, in vivo, read-out: Vdss
[23] = Oral bioavailability in minipig at 3 mg/kg via gavage measured over 240 hrs; type: ADME, organism-based, Sus scrofa domesticus; details: pig, in vivo
Mus musculus [24] = test: In vivo modulation of gamma secretase in po dosed APP-Swedish transgenic mouse assessed as reduction in total Abeta42 production level in brain administered as single dose by ELISA or AlphaLISA assay; type: functional, organism-based; details: for IC50: Mus musculus
[25] = Mutagenicity in Salmonella typhimurium by Ames test; type: toxicity; details: salmonella enterica subsp. enterica serovar typhimurium
[26] = Solubility of the compound in fasted state simulated intestinal fluid; type: physicochemical; details: simulated gi fluid
[27] = Solubility in fed state simulated intestinal fluids; type: physicochemical; details: simulated gi fluid
Keratinocyte = test: Phototoxicity in human Keratinocytes in presence of UVA at 320 to 400 nm; type: cell-based; details: light or radiation study
Melanocyte = test: Phototoxicity in human Melanocytes in presence of UVA at 320 to 400 nm; type: cell-based; details: light or radiation study
[28] = Cytotoxicity against human embryonic stem cells assessed as reduction in cell viability; type: cell-based
[29] = Thermodynamic solubility of the compound; type: physicochemical
[30] = Fraction unbound in 10% fetal calf serum; type: ADME, cell-free, Bos taurus; details: cattle
Mus musculus [31] = test: In vivo modulation of gamma secretase in APP-Swedish transgenic mouse assessed as reduction in Abeta42 production by measuring remaining Abeta42 level at 1 mg/kg, po measured after 4 hrs by ELISA or AlphaLISA assay relative to control; type: functional
Mus musculus [32] = test: In vivo modulation of gamma secretase in APP-Swedish transgenic mouse assessed as reduction in Abeta42 production by measuring remaining Abeta42 level at 3 mg/kg, po measured after 4 hrs by ELISA or AlphaLISA assay relative to control; type: functional
Mus musculus [33] = test: In vivo modulation of gamma secretase in APP-Swedish transgenic mouse assessed as reduction in Abeta42 production by measuring remaining Abeta42 level at 10 mg/kg, po measured after 4 hrs by ELISA or AlphaLISA assay relative to control; type: functional
Mus musculus [34] = test: In vivo modulation of gamma secretase in APP-Swedish transgenic mouse assessed as reduction in Abeta42 production by measuring remaining Abeta42 level at 0.3 mg/kg, po measured after 4 hrs by ELISA or AlphaLISA assay relative to control; type: functional
[35] = Dark toxicity in human Melanocytes assessed as reduction in cell viability; type: cell-based, Melanocyte
[36] = Dark toxicity in human Keratinocytes assessed as reduction in cell viability; type: cell-based, Keratinocyte
[37] = Ratio of IC50 for dark toxicity in human Keratinocytes to IC50 for phototoxicity in human Keratinocytes in presence of UVA at 320 to 400 nm; type: cell-based, Keratinocyte; details: read-out: Ratio IC50
[38] = Ratio of IC50 for dark toxicity in human Melanocytes to IC50 for phototoxicity in human Melanocytes in presence of UVA at 320 to 400 nm; type: cell-based, Melanocyte; details: read-out: Ratio IC50
[39] = Covalent protein binding in human liver microsomes assessed per mg protein in presence of NADPH; type: ADME, Microsome

Phosphatidylinositol 4-kinase beta, sequence (Q9UBF8 whole entry): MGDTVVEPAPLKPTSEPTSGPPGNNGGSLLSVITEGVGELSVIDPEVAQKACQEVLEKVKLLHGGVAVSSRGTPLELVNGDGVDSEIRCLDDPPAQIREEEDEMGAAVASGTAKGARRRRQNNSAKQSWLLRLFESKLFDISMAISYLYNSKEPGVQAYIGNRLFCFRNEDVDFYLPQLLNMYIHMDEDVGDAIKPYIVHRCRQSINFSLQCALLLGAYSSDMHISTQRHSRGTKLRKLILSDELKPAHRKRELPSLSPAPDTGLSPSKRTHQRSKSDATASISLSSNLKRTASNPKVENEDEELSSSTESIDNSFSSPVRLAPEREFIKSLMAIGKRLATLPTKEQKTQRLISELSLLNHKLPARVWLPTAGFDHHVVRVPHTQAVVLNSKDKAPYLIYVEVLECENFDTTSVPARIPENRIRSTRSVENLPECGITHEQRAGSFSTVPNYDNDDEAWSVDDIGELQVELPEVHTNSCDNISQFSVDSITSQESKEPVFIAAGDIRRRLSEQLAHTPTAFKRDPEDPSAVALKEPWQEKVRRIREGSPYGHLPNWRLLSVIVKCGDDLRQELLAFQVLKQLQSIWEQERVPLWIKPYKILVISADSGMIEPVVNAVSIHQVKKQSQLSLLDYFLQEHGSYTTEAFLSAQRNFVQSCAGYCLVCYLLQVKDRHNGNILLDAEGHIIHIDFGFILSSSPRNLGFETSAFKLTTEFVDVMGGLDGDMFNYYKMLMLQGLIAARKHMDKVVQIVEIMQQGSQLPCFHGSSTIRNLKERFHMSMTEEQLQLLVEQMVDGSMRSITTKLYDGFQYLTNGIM
Voltage-gated inwardly rectifying potassium channel KCNH2, sequence (Q12809 whole entry): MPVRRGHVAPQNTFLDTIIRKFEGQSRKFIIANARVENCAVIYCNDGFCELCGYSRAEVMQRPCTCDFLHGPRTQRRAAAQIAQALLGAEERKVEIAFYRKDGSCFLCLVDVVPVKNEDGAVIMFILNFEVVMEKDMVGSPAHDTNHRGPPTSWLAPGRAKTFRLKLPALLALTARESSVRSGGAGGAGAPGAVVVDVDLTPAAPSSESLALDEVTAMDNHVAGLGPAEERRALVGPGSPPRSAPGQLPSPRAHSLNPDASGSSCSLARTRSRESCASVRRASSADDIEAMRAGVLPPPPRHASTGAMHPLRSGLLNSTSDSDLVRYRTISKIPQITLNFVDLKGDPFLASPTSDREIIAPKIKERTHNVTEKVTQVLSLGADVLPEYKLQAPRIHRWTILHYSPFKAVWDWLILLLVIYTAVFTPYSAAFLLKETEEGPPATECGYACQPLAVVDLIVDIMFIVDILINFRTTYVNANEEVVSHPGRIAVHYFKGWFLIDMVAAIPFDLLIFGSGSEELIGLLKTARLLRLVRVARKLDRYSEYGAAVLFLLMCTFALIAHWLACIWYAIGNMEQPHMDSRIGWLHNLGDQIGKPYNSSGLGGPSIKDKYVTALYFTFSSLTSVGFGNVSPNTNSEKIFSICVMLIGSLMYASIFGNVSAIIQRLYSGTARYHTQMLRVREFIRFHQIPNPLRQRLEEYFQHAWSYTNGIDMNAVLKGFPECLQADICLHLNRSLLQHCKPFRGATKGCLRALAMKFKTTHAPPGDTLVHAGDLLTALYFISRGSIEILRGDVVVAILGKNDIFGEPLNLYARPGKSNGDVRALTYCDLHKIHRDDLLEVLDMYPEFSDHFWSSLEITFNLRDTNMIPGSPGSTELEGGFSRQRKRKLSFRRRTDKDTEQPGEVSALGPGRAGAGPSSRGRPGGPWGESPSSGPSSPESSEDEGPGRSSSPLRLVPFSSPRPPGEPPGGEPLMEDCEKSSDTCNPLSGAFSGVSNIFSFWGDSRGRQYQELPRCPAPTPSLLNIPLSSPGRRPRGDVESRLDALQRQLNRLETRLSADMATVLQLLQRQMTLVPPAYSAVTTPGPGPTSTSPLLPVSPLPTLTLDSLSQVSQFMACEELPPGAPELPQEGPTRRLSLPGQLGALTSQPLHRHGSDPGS
hERG (KCNH2), sequence (Q12809 whole entry): as above

Structure (SMILES) | fraction unbound [1] | fraction unbound [2] | fIC50 [3] | IC50 (Gamma-secretase) | IC50 [4] | fIC50 (Mus musculus [5]) | logD [6] | solubility [7] | hepatocyte CLint [8] | hepatocyte CLint [9] | IC50 [10] | IC20 (hERG (KCNH2)) | Kd [11] | IC50 (Mus musculus [24]) | IC50 (Keratinocyte) | IC50 (Melanocyte) | further results
Cc1nnc(N2C[C@H]3CC[C@@H](C2)[C@@H]3Nc2nc3c(O[C@@H](C)C(F)(F)F)ccc(C(F)(F)F)n3n2)o1 | 0.05 | 0.043 | 19 nM | 30 nM | 21 nM | 14 nM | 3.8 to 3.85 | 82 µg/mL (≈ 162 µM) | 1.1 µL/min/1e6 cells | 3.4 µL/min/1e6 cells | > 20000 nM | 5400 nM | > 40000 nM | 40 nM | 25000 nM | 25000 nM | fraction unbound [12]: 0.059; hepatocyte CLint [13]: 6.3 µL/min/1e6 cells; AUC/dose [14]: 1748 kg·ng·h/mL/mg; clearance [15]: 3.8 mL/min/kg; half-life [16]: 8.1 h; Vd [17]: 2.2 L/kg; bioavailability [18]: 33%; AUC/dose [19]: 1383 kg·ng·h/mL/mg; clearance [20]: 3.35 mL/min/kg; half-life [21]: 6.7 h; Vd [22]: 0.83 L/kg; bioavailability [23]: 27%; Activity [25]: Non-Toxic; solubility [26]: 234 µg/mL (≈ 463 µM); solubility [27]: 390 µg/mL (≈ 772 µM); Activity [28]: Non-Toxic; Therm solubility [29]: 85 µg/mL
Cc1nsc(N2CC3CCC(C2)C3Nc2nc3c(-c4ccc(F)c(F)c4F)cccn3n2)n1 (stereo not given) | 0.004 | 0.003 | 1 nM | 4.5 nM | 4 nM | 0.9 nM | 4.1 to 4.14 | 3.8 to 3.86 µg/mL (≈ 8.06 to 8.19 µM) | 6.6 µL/min/1e6 cells | 5.4 µL/min/1e6 cells | < 2000 nM | < 1000 nM | 120 nM | 160 nM | 1670 nM | 1670 nM | fraction unbound [30]: 0.22; Activity (Mus musculus [31]): 56%; remaining Abeta42 level (% of control) (Mus musculus [32]): 27%; remaining Abeta42 level (% of control) (Mus musculus [33]): 22%; Activity (Mus musculus [34]): 75%; fIC50 (Mus musculus [24]): 0.5 nM; IC50 [35]: > 38000 nM; IC50 [36]: > 38000 nM; selectivity ratio [37]: 22.9 to 23; selectivity ratio [38]: 22.9 to 23; PB [39]: 105 pmol
